Test results published in ChEMBL document CHEMBL3351395, “Podoimbricatin A, a cytotoxic diterpenoid with an unprecedented 6/6/5/6-fused tetracyclic ring system from the twigs and leaves of Podocarpus imbricatus” (Bioorg Med Chem Lett, 2014).
pIC50: −log10 of the molar value.

Legend:
NCI-H292 = assay: Antiproliferative activity against human NCI-H292 cells by MTT assay; format: functional, cell-based
A549 = assay: Antiproliferative activity against human A549 cells by MTT assay; format: functional, cell-based

In the case of C=C1CC[C@@H]2[C@](C)(CCC[C@]2(C)C(=O)O)[C@H]1CC/C(C)=C/C(=O)O [AGATHIC ACID], the pIC50 (NCI-H292) was 4.69 and the pIC50 (A549) was 4.32.

CCC(C)C1NC(=O)C(NC(=O)/C=C/c2ccccc2)C(C(C)C)Oc2ccc(cc2)/C=C/NC1=O (stereo unspecified) gave a pIC50 (NCI-H292) of 4.75 and a pIC50 (A549) of 4.67.

For CC1(C)CCC[C@]2(C)[C@H]3C[C@H]4C(CO)=CCO[C@@H]4[C@H]3C[C@H](O)[C@@H]12, the pIC50 (NCI-H292) was 4.72 and the pIC50 (A549) was 4.60.
